Read-outs that look alike come from different tables or passages of the source.
How the values were obtained:
TrkA kinase = target: T1, TrkA kinase (Homo sapiens, UniProt P04629); assay: In vitro TrkA inhibitory activity using TR-FRET assay; type: biochemical; settings: 5 ng TrkA, 500 μM ATP
T1 construct: purchased Upstate, USA
Summary of the method: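 Kinase (5 ng) was preincubated with compound for 30 min at 20-35° C before adding 40 nM ULight poly GT and 500 μM ATP; stopped with EDTA after 30 min. Eu-anti-phosphotyrosine antibody (0.5 nM) was read at 615/665 nm with 1% DMSO final. Compounds showing >25% inhibition at 1 μM went to sigmoidal dose-response IC50 fitting.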

[1] = Metabolic stability using Human Liver Microsomes (HLM); type: in vitro ADME; settings: pooled human liver microsomes, compound 1 μM, 0.3 mg/ml microsomal protein, 1 mM NADPH
Experimental: Stability Protocol: Metabolic Stability Using Rat Liver Microsomes (RLM) and Human Liver Microsomes (HLM).
This assay was performed using pooled male rat liver microsomes (In-house prepared as per SOP), Pooled Human liver microsomes (XENOTECH; Batch No— H0630-1110189)). The 100 μl reaction contains the compounds at 1 μM, 0.3 mg/ml microsomal protein and both the co-factors (1 mM NADPH) in buffer and the mixture was incubated at different time points (0, 15, 30, 45, 60, & 90 minutes). The reaction was stopped by the addition of equal volume of acetonitrile containing internal standard (Telmesartin). The precipitated protein was removed by centrifugation and the supernatant were analyzed LC/MS-MS method. The percent parent compound remaining was quantified by analysis using following formula (% parent compound remaining=(peak area at Time x/peak area at T0)×100. The intrinsic clearance was calculated using the following formula. CLint,app: (0.693/in vitro t½)(incubation volume/mg of microsomal protein)(45 mg microsomal protein/gram of liver)(20^a g of liver/kg body weight) • a: 20 and 45 g of liver/kg of body weight were used for human and rat, respectively (Lu C et al., DMD, 2006). Bio-analysis: It was performed in Multiple Reaction Monitoring mode (negative mode) using Applied Biosystems API 4000 coupled to Agilent Technologies 1100 series HPLC on a reverse phase column (Zorbax Eclipse XDB C18, 50×4.6 mm, 5 μm). Celecoxib was used as internal standard both in in-vitro and in-vivo experiments. Mobile phase used 0.05% […] water and acetonitrile (10:90) with a flow rate of 0.6 ml/minute. The injection volume was kept as 10 μl.

[2] = both bounds given in nm, read-out: TrkA inhibitory activity in-vitro IC50
[3] = read-out: TrkA inhibition in-vitro IC50

T1 sequence (P04629 33-796): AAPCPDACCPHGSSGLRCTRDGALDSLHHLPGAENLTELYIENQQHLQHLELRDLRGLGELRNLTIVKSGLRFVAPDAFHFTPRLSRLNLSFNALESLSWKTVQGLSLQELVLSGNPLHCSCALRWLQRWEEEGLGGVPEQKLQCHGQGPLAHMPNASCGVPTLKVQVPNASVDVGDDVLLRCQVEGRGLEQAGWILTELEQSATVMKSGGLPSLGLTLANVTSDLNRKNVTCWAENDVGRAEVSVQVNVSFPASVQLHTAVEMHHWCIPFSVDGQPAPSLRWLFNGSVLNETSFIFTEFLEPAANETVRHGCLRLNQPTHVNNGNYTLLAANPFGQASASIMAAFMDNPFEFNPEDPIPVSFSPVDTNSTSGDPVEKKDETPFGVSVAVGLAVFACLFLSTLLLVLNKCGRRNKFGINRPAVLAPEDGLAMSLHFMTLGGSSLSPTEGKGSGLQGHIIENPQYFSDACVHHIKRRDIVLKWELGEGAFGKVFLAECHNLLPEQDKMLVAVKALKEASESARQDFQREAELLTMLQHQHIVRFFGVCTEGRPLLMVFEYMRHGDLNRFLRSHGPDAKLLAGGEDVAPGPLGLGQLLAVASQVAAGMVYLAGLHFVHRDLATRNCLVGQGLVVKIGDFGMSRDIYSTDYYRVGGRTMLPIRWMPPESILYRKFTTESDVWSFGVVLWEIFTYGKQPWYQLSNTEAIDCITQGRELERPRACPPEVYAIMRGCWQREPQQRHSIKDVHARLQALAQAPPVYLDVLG

| Structure (SMILES) | half-life at 1 μM [1] [h] | IC50 (TrkA kinase; [3]) [nM] | other results |
| --- | --- | --- | --- |
| CC(C)(C)S(=O)(=O)NC(=O)c1cnn2ccc(N3C[C@@H](F)C[C@@H]3c3cc(F)ccc3F)cc12 (single isomer, unassigned) [Example 52] | > 1.33 | ≤ 50 |  |
| O=C(NS(=O)(=O)c1ccc(F)cc1)c1cnn2ccc(N3CCC[C@@H]3c3cc(F)ccc3F)cc12 [Example 1, (R)-5-(2-(2,5-difluorophenyl)pyrrolidin-1-yl)-N-((4-fluorophenyl)sulfonyl)pyrazolo[1,5-a]pyridine-3-carboxamide] | > 1.33 |  | IC50 (TrkA kinase; [2]): 100 to 500 nM |
| N#Cc1cccc(S(=O)(=O)NC(=O)c2cnn3ccc(N4CCC[C@@H]4c4cc(F)ccc4F)cc23)c1 [Example 4, (R)-N-((3-cyanophenyl)sulfonyl)-5-(2-(2,5-difluorophenyl)pyrrolidin-1-yl)pyrazolo[1,5-a]pyridine-3-carboxamide] | > 1.33 | 50 to 100 |  |
| Cc1ccccc1S(=O)(=O)NC(=O)c1cnn2ccc(N3CCC[C@@H]3c3cc(F)ccc3F)cc12 [Example 39, (R)-5-(2-(2,5-difluorophenyl)pyrrolidin-1-yl)-N-(o-tolylsulfonyl)pyrazolo[1,5-a]pyridine-3-carboxamide] | > 1.33 |  |  |
| CCN(C)S(=O)(=O)NC(=O)c1cnn2ccc(N3C[C@@H](F)C[C@@H]3c3cccc(F)c3)c(F)c12 [Example 102, N-(N-ethyl-N-methylsulfamoyl)-4-fluoro-5-((2R,4S)-4-fluoro-2-(3-fluorophenyl)pyrrolidin-1-yl)pyrazolo[1,5-a]pyridine-3-carboxamide] | > 1.33 |  |  |
| NS(=O)(=O)NC(=O)c1cnn2ccc(N3C[C@@H](F)C[C@@H]3c3cccc(F)c3)c(F)c12 [Example 107, 4-fluoro-5-((2R,4S)-4-fluoro-2-(3-fluorophenyl)pyrrolidin-1-yl)-N-sulfamoylpyrazolo[1,5-a]pyridine-3-carboxamide] | > 1.33 |  |  |
| CC(C)(C)S(=O)(=O)NC(=O)c1cnn2ccc(N3C[C@@H](F)C[C@@H]3c3cccc(F)c3)c(F)c12 [Example 121, N-(tert-butylsulfonyl)-4-fluoro-5-((2R,4S)-4-fluoro-2-(3-fluorophenyl)pyrrolidin-1-yl)pyrazolo[1,5-a]pyridine-3-carboxamide] | > 1.33 |  |  |
| CC(C)S(=O)(=O)NC(=O)c1cnn2ccc(N3C[C@@H](F)C[C@@H]3c3cccc(F)c3)c(F)c12 [Example 122, 4-fluoro-5-((2R,4S)-4-fluoro-2-(3-fluorophenyl)pyrrolidin-1-yl)-N-(isopropylsulfonyl) pyrazolo[1,5-a]pyridine-3-carboxamide] | > 1.33 |  |  |
| CC(C)(C)S(=O)(=O)NC(=O)c1cnn2ccc(N3CC(F)(F)CC3c3cc(F)ccc3F)cc12 (centres unmarked) [Example 133, Sodium (tert-butylsulfonyl)(5-(2-(2,5-difluorophenyl)-4,4-difluoropyrrolidin-1-yl)pyrazolo[1,5-a]pyridine-3-carbonyl)amide] |  |  | IC50 (TrkA kinase; [2]): 100 to 500 nM |
| CC(C)(C)S(=O)(=O)NC(=O)c1cnn2ccc(N3CC(F)C[C@@H]3c3cc(F)ccc3F)cc12 (stereo partly drawn) [Example 135, Sodium (tert-butylsulfonyl)(5-((2R)-2-(2,5-difluorophenyl)-4-fluoropyrrolidin-1-yl)pyrazolo[1,5-a]pyridine-3-carbonyl)amide] |  |  | IC50 (TrkA kinase; read-out: TrkA inhibitory activity in-vitro IC50): 1000 to 10000 nM |
| CC(C)(C)S(=O)(=O)NC(=O)c1cnn2ccc(N3C[C@@H](F)C[C@@H]3c3cccc(F)c3)c(F)c12 [Example 137, Sodium (tert-butylsulfonyl)(4-fluoro-5-((2R,4S)-4-fluoro-2-(3-fluorophenyl)pyrrolidin-1-yl)pyrazolo[1,5-a]pyridine-3-carbonyl)amide] |  | ≤ 50 |  |
| Cc1ccccc1S(=O)(=O)NC(=O)c1cnn2ccc(N3CCC[C@@H]3c3cc(F)ccc3F)cc12 [Example 140, Sodium (R)-(5-(2-(2,5-difluorophenyl)pyrrolidin-1-yl)pyrazolo[1,5-a]pyridine-3-carbonyl)(o-tolylsulfonyl)amide] |  | ≤ 50 |  |
| CC(C)S(=O)(=O)NC(=O)c1cnn2ccc(N3C[C@@H](F)C[C@@H]3c3cccc(F)c3)c(F)c12 [Example 141, Sodium (4-fluoro-5-((2R,4S)-4-fluoro-2-(3-fluorophenyl)pyrrolidin-1-yl)pyrazolo[1,5-a]pyridine-3-carbonyl) (isopropylsulfonyl)amide] |  | ≤ 50 |  |

Now from value to molecule, other results behind:

| half-life at 1 μM [1] [h] | IC50 (TrkA kinase; [3]) [nM] | Structure (SMILES) | other results |
| --- | --- | --- | --- |
| > 1.33 |  | CC(C)(C)S(=O)(=O)NC(=O)c1cnn2ccc(N3CCCC3c3cc(F)cc4c3OCCO4)cc12 (single isomer, unassigned) [Example 50, N-(tert-butylsulfonyl)-5-(2-(7-fluoro-2,3-dihydrobenzo [b][1,4]dioxin-5-yl)pyrrolidin-1-yl)pyrazolo[1,5-a]pyridine-3-carboxamide] | IC50 (TrkA kinase; [2]): 100 to 500 nM |
| > 1.33 |  | CCN(C)S(=O)(=O)NC(=O)c1cnn2ccc(N3CCCC3c3cc(F)cc4c3OCCCO4)cc12 (single isomer, unassigned) [Example 96, N-(N-ethyl-N-methylsulfamoyl)-5-(2-(8-fluoro-3,4-dihydro-2H-benzo[b][1,4]dioxepin-6-yl)pyrrolidin-1-yl)pyrazolo[1,5-a]pyridine-3-carboxamide] |  |
| > 1.33 | ≤ 50 | CC(C)(C)S(=O)(=O)NC(=O)c1cnn2ccc(N3CCC[C@@H]3c3cc(F)ccc3F)cc12 [Example 2, (R)-N-(tert-butylsulfonyl)-5-(2-(2,5-difluorophenyl)pyrrolidin-1-yl) pyrazolo[1,5-a]pyridine-3-carboxamide] |  |
| > 1.33 |  | CCS(=O)(=O)NC(=O)c1cnn2ccc(N3CCC[C@@H]3c3cc(F)ccc3F)cc12 [Example 3, (R)-5-(2-(2,5-difluorophenyl)pyrrolidin-1-yl)-N-(ethylsulfonyl)pyrazolo[1,5-a]pyridine-3-carboxamide] | IC50 (TrkA kinase; [2]): 100 to 500 nM |
| > 1.33 | ≤ 50 | CCCS(=O)(=O)NC(=O)c1cnn2ccc(N3CCC[C@@H]3c3cc(F)ccc3F)cc12 [Example 10, (R)-5-(2-(2,5-difluorophenyl)pyrrolidin-1-yl)-N-(propylsulfonyl)pyrazolo[1,5-a] pyridine-3-carboxamide] |  |
| > 1.33 |  | CC1(S(=O)(=O)NC(=O)c2cnn3ccc(N4CCC[C@@H]4c4cc(F)ccc4F)cc23)CC1 [Example 38, (R)-5-(2-(2,5-difluorophenyl)pyrrolidin-1-yl)-N-((1-methylcyclopropyl)sulfonyl)pyrazolo[1,5-a] pyridine-3-carboxamide] |  |
| > 1.33 |  | COc1ccc(F)cc1[C@H]1CCCN1c1ccn2ncc(C(=O)NS(=O)(=O)C(C)(C)C)c2c1 [Example 42, (R)-N-(tert-butylsulfonyl)-5-(2-(5-fluoro-2-methoxyphenyl)pyrrolidin-1-yl)pyrazolo[1,5-a] pyridine-3-carboxamide] |  |
| > 1.33 |  | CCN(C)S(=O)(=O)NC(=O)c1cnn2ccc(N3CCC[C@@H]3c3cc(F)cc(O[C@@H]4CCOC4)c3)cc12 [Example 106, N-(N-ethyl-N-methylsulfamoyl)-5-((R)-2-(3-fluoro-5-(((R)-tetrahydrofuran-3-yl)oxy)phenyl)pyrrolidin-1-yl)pyrazolo[1,5-a]pyridine-3-carboxamide] |  |
| > 1.33 |  | CC(C)(C)S(=O)(=O)NC(=O)c1cnn2ccc(N3CCC[C@@H]3c3cc(F)ccc3OC3CCOCC3)cc12 [Example 124, (R)-N-(tert-butylsulfonyl)-5-(2-(5-fluoro-2-((tetrahydro-2H-pyran-4-yl)oxy)phenyl)pyrrolidin-1-yl)pyrazolo[1,5-a]pyridine-3-carboxamide] |  |
|  | 50 to 100 | CC1(S(=O)(=O)NC(=O)c2cnn3ccc(N4CCC[C@@H]4c4cc(F)ccc4F)cc23)CC1 [Example 134, Sodium (R)-(5-(2-(2,5-difluorophenyl)pyrrolidin-1-yl)pyrazolo[1,5-a]pyridine-3-carbonyl)((1-methylcyclopropyl)sulfonyl)amide] |  |
|  | ≤ 50 | CN(C)S(=O)(=O)NC(=O)c1cnn2ccc(N3CCC[C@@H]3c3cccc(F)c3)c(F)c12 [Example 138, Sodium (R)-(N,N-dimethylsulfamoyl)(4-fluoro-5-(2-(3-fluorophenyl)pyrrolidin-1-yl)pyrazolo[1,5-a]pyridine-3-carbonyl)amide] |  |
|  | ≤ 50 | CCN(C)S(=O)(=O)NC(=O)c1cnn2ccc(N3CCC[C@@H]3c3cc(F)ccc3OC3CCOC3)cc12 (stereo partly drawn) [Example 139, Sodium (N-ethyl-N-methylsulfamoyl)(5-((2R)-2-(5-fluoro-2-((tetrahydrofuran-3-yl)oxy)phenyl)pyrrolidin-1-yl)pyrazolo[1,5-a]pyridine-3-carbonyl)amide] |  |
